Test system: IL-2
Assay: PHA-IL2 (cell activation and cytokine analysis)
Assay type: cell-based
Conditions: 50% inhibition concentration class
How it was run: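 Cells were seeded in 96-well plates at 1.0-2.0×10^6 cells/ml in 150 ul of RPMI containing 0.5% fetal calf serum. Test compounds, at up to ≤20 uM, were preincubated with the cells for 30 minutes, then phytohemagglutinin (PHA) was added and cultures were stimulated for 24-48 hours at 37 degrees C./5% CO2. Supernatant IL-2 was then quantified by standard ELISA.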

Row | IC50 | Compound
1 | 1000 to 10000 nM | C#CCOc1ccc(CCC2CCN(C(=O)COc3ccccc3-c3ccc(C(=O)c4ccccc4)cc3)CC2)cc1 [Compound 412]
2 | 1000 to 10000 nM | Cc1ccc(C#CC2CCN(C(=O)COc3ccc(C#N)cc3-c3ccc(C#N)cc3)CC2)nn1 [Compound 428]
3 | 1000 to 10000 nM | COc1cccc(CCC2CCN(C(=O)COc3ccccc3-c3ccc4[nH]c(C)nc4c3)CC2)c1 [Compound 387]
4 | 10000 to 50000 nM | O=C(NCCO)c1cccc(-c2ccccc2OCC(=O)N2CCC(CCc3ccc4c(c3)OCO4)CC2)c1 [Compound 172]
5 | 1000 to 10000 nM | CCCCOc1cccc(-c2ccccc2OCC(=O)N2CCC(CCc3ccc4c(c3)OCO4)CC2)c1 [Compound 246]
6 | 1000 to 10000 nM | CC(C)COc1cccc(-c2ccccc2OCC(=O)N2CCC(CCc3ccc4c(c3)OCO4)CC2)c1 [Compound 245]
7 | 1000 to 10000 nM | O=C(COc1ccccc1-c1cccc(O)c1)N1CCC(CCc2ccc3c(c2)OCO3)CC1 [Compound 160]
8 | 1000 to 10000 nM | Cn1ccc2cc(-c3ccccc3OCC(=O)N3CCC(CCc4ccc5c(c4)OCO5)CC3)ccc21 [Compound 384]
9 | 1000 to 10000 nM | CC(C)Oc1cccc(-c2ccccc2OCC(=O)N2CCC(CCc3ccc4c(c3)OCO4)CC2)c1 [Compound 243]
10 | 1000 to 10000 nM | O=C(COc1ccccc1-c1ccc(F)cc1O)N1CCC(CCc2ccc(F)c(C(F)(F)F)c2)CC1 [Compound 307]
11 | < 1000 nM | O=C(COc1ccccc1-c1ccc(F)cc1O)N1CCC(CCc2ccc(N3CCOCC3)cc2)CC1 [Compound 305]
12 | < 1000 nM | O=C(COc1ccccc1-c1ccc(F)cc1)N1CCC(CCc2ccc3c(c2)OCCCO3)CC1 [Compound 230]
13 | 1000 to 10000 nM | O=C(COc1ccccc1-c1ccc2[nH]cnc2c1)N1CCC(CCc2ccccc2)CC1 [Compound 370]
14 | < 1000 nM | N#Cc1ccc(-c2ccccc2OCC(=O)N2CCC(CCc3ccc4c(c3)OCO4)CC2)cc1 [Compound 166]
15 | 1000 to 10000 nM | O=C(COc1cccnc1-c1ccc(F)cc1O)N1CCC(CCc2ccccc2)CC1 [Compound 330]
16 | < 1000 nM | CC(C)Oc1cccc(CCC2CCN(C(=O)COc3ccccc3-c3ccc(F)cc3O)CC2)c1 [Compound 400]
17 | < 1000 nM | CC(Oc1ccccc1-c1ccccc1)C(=O)N1CCC(CCc2ccc3c(c2)OCCCO3)CC1 (centres unmarked) [Compound 209]
18 | 10000 to 50000 nM | O=C(O)c1ccc(-c2ccccc2OCC(=O)N2CCC(CCc3ccc4c(c3)OCO4)CC2)cc1 [Compound 157]
19 | < 1000 nM | N#CCc1ccc(-c2ccccc2OCC(=O)N2CCC(CCc3ccc4c(c3)OCO4)CC2)cc1 [Compound 197]
20 | < 1000 nM | N#Cc1cc(-c2ccccc2OCC(=O)N2CCC(CCc3ccc4c(c3)OCO4)CC2)ccc1F [Compound 188]
21 | < 1000 nM | O=C(COc1ccccc1-c1ccc(F)nc1)N1CCC(CCc2ccc3c(c2)OCCCO3)CC1 [Compound 266]
22 | < 1000 nM | CC(C)Oc1cccc(CCC2CCN(C(=O)COc3ccc(C#N)cc3-c3ccc(F)cc3O)CC2)c1 [Compound 399]
23 | 1000 to 10000 nM | O=C(COc1ccccc1-c1ccc(C(F)(F)F)cc1O)N1CCC(CCc2ccc3c(c2)OCO3)CC1 [Compound 365]
24 | < 1000 nM | O=C(c1ccccc1)c1ccc(-c2ccccc2OCC(=O)N2CCC(CCc3cccc(O)c3)CC2)cc1 [Compound 415]

Row | IC50 | Compound
25 | 1000 to 10000 nM | COc1cccc(CCC2CCN(C(=O)COc3cccnc3-c3ccc(C(F)(F)F)cc3O)CC2)c1 [Compound 363]
26 | 1000 to 10000 nM | Cc1cnc(CCC2CCN(C(=O)COc3ccc(C#N)cc3-c3ccc(C#N)cc3)CC2)cn1 [Compound 426]
27 | 1000 to 10000 nM | O=C(/C=C/c1ccccc1-c1ccc(F)cc1O)N1CCC(CCc2ccc3c(c2)OCO3)CC1 [Compound 344]
28 | 1000 to 10000 nM | O=C(COc1ccccc1-c1ccncc1)N1CCC(CCc2ccc3c(c2)OCO3)CC1 [Compound 247]
29 | < 1000 nM | Cc1nc2cc(-c3ccccc3OCC(=O)N3CCC(CCc4ccc5c(c4)OCO5)CC3)ccc2[nH]1 [Compound 388]
30 | 1000 to 10000 nM | COc1ccccc1-c1ccccc1OCC(=O)N1CCC(CCc2ccc3c(c2)OCO3)CC1 [Compound 180]
31 | < 1000 nM | O=C(C1CC1c1cc2c(cc1-c1ccccc1)OCO2)N1CCC(CCc2ccc3c(c2)OCO3)CC1 (centres unmarked) [Compound 260]
32 | < 1000 nM | O=C(COc1ccccc1-c1ccc2[nH]ncc2c1)N1CCC(CCc2ccc3c(c2)OCO3)CC1 [Compound 249]
33 | < 1000 nM | COc1cccc(-c2ccccc2OCC(=O)N2CCC(CCc3ccc4c(c3)OCO4)CC2)c1OC [Compound 241]
34 | < 1000 nM | O=C(c1ccccc1)c1ccc(-c2ccccc2OCC(=O)N2CCC(CCc3ccc(O)cc3)CC2)cc1 [Compound 314]
35 | 1000 to 10000 nM | COc1cccc(CCC2CCN(C(=O)COc3cccnc3-c3ccc4c(cnn4C)c3)CC2)c1 [Compound 373]
36 | 10000 to 50000 nM | COc1cc(CCC2CCN(C(=O)COc3cccnc3-c3ccc(F)cc3O)CC2)ccc1OCCN1CCOCC1 [Compound 381]
37 | < 1000 nM | Cc1ccc(F)c(-c2ccccc2OCC(=O)N2CCC(CCc3ccc4c(c3)OCO4)CC2)c1 [Compound 239]
38 | < 1000 nM | O=C(COc1ccccc1-c1cccc(Cl)c1)N1CCC(CCc2ccc3c(c2)OCO3)CC1 [Compound 201]
39 | < 1000 nM | N#Cc1ccc(OCC(=O)N2CCC(CCc3cccc(OC4CCCC4)c3)CC2)c(-c2ccc(F)cc2O)c1 [Compound 409]
40 | 1000 to 10000 nM | O=C(COc1ccccc1-c1ccccc1)N1CCC(CCCc2ccccc2)CC1 [Compound 261]
41 | 10000 to 50000 nM | Cc1cc(F)ncc1-c1ncccc1OCC(=O)N1CCC(CCc2ccc3c(c2)OCCO3)CC1 [Compound 336]
42 | 1000 to 10000 nM | Cc1cnc(C#CC2CCN(C(=O)COc3ccc(C#N)cc3-c3ccc(C#N)cc3)CC2)cn1 [Compound 425]
43 | < 1000 nM | N#Cc1ccc(-c2ccccc2OCC(=O)N2CCC(CCc3ccc4c(c3)OCCO4)CC2)cn1 [Compound 297]
44 | < 1000 nM | COc1cccc(CCC2CCN(C(=O)COc3ccc(C(F)(F)F)cc3-c3ccc(F)cc3O)CC2)c1 [Compound 353]
45 | 1000 to 10000 nM | O=C(COc1ccccc1-c1cnccn1)N1CCC(CCc2ccccc2)CC1 [Compound 423]
46 | 1000 to 10000 nM | O=C(COc1ccccc1-c1ccccc1O)N1CCC(CCc2ccc3c(c2)OCCO3)CC1 [Compound 295]
47 | 10000 to 50000 nM | O=C(NCCO)c1ccc(-c2ccccc2OCC(=O)N2CCC(CCc3ccc4c(c3)OCO4)CC2)cc1 [Compound 182]
48 | 1000 to 10000 nM | COc1cccc(CCC2CCN(C(=O)COc3ccccc3-c3ccc(C(F)(F)F)cc3O)CC2)c1 [Compound 364]

Row | IC50 | Compound
49 | 1000 to 10000 nM | Nc1ccc(CCC2CCN(C(=O)COc3ccccc3-c3ccccc3)CC2)cn1 [Compound 255]
50 | 1000 to 10000 nM | CCc1ccc(OCC(=O)N2CCC(CCc3ccc4c(c3)OCO4)CC2)c(-c2ccc(F)cc2)c1 [Compound 273]
51 | < 1000 nM | COc1cccc(CCC2CCN(C(=O)COc3ccc(C#N)cc3-c3ccc(F)cc3O)CC2)c1 [Compound 352]
52 | < 1000 nM | O=C(COc1ccccc1-c1ccccc1)N1CCC(CCc2cc(C(F)(F)F)cc(C(F)(F)F)c2)CC1 [Compound 117]
53 | < 1000 nM | CC1Oc2ccc(CCC3CCN(C(=O)COc4ccccc4-c4ccc(C#N)cc4)CC3)cc2OC1C (centres unmarked) [Compound 263]
54 | 1000 to 10000 nM | CC1CC(CCc2ccccc2)CCN1C(=O)COc1ccccc1-c1ccc(F)cc1O (centres unmarked) [Compound 303]
55 | < 1000 nM | O=C(COc1ccccc1-c1ccc2[nH]ncc2c1)N1CCC(CCc2ccc3c(c2)OCCO3)CC1 [Compound 293]
56 | 1000 to 10000 nM | O=C(COc1ccccc1-c1ccc(Cl)nc1)N1CCC(CCc2ccc3c(c2)OCCO3)CC1 [Compound 292]
57 | 1000 to 10000 nM | N#Cc1ccc(OCC(=O)N2CCC(CCc3cccc(OCCN4CCOCC4)c3)CC2)c(-c2ccc(F)cc2O)c1 [Compound 354]
58 | < 1000 nM | CCc1ccc(OCC(=O)N2CCC(CCc3ccc4c(c3)OCO4)CC2)c(-c2ccc3[nH]ncc3c2)c1 [Compound 277]
59 | < 1000 nM | C#Cc1ccc(-c2ccccc2OCC(=O)N2CCC(CCc3ccc4c(c3)OCO4)CC2)cc1 [Compound 250]
60 | 1000 to 10000 nM | Cc1cnc(-c2ccccc2OCC(=O)N2CCC(CCc3ccccc3)CC2)cn1 [Compound 424]
61 | 10000 to 50000 nM | CN(C)CCCOc1ccc(-c2ccccc2OCC(=O)N2CCC(CCc3ccc4c(c3)OCO4)CC2)cn1 [Compound 171]
62 | 10000 to 50000 nM | COc1cccc(CCC2CCN(C(=O)C[S+]([O-])c3ccccc3-c3ccccc3)CC2)c1 (centres unmarked) [Compound 313]
63 | < 1000 nM | COc1ccc(F)c(-c2ccccc2OCC(=O)N2CCC(CCc3ccc4c(c3)OCO4)CC2)c1 [Compound 238]
64 | 1000 to 10000 nM | O=C(COc1cccnc1-c1ccc2[nH]ncc2c1)N1CCC(CCc2ccc3c(c2)OCO3)CC1 [Compound 328]
65 | 1000 to 10000 nM | O=C(COc1cccnc1-c1ccc(F)cc1O)N1CCC(CCc2ccncc2)CC1 [Compound 397]
66 | < 1000 nM | COC(=O)c1ccc(CCC2CCN(C(=O)COc3ccccc3-c3ccc(C#N)cc3)CC2)cc1 [Compound 290]
67 | < 1000 nM | O=C(COc1ccccc1-c1ccc(F)cc1O)N1CCC(CCc2ccc3c(c2)OCCO3)CC1 [Compound 296]
68 | < 1000 nM | O=C(COc1ccccc1-c1ccc(F)cc1O)N1CCC(CCc2cccc(OC(F)F)c2)CC1 [Compound 435]
69 | 1000 to 10000 nM | COc1cccc(CCC2CCN(C(=O)CCc3ccccc3-c3ccc(F)cc3)CC2)c1 [Compound 224]
70 | 10000 to 50000 nM | NC(=O)c1ccc(-c2ccccc2OCC(=O)N2CCC(CCc3ccc4c(c3)OCO4)CC2)cc1 [Compound 183]
71 | < 1000 nM | COc1cccc(CCC2CCN(C(=O)C(C)Oc3c(C)cccc3-c3ccccc3)CC2)c1 (centres unmarked) [Compound 235]

Source: patent US10899747B2, “Biaryl piperidine amide compounds and methods of use thereof” (Athenex, Inc., priority 2017, dated 2021)
